Patent US5635514A, “Heteroaralkyl and heteroarylthioalkyl thiophenolic compounds as 5-lipoxgenase inhibitors” (G. D. Searle & Company, priority 1994, dated 1997)

What was measured:
[1] = system: TPA-induced ear inflammation (Mouse, Ear); assay: Tetradecanoylphorbol Acetate (TPA) Assay (TPA-induced mouse ear inflammation); type: in vivo; details: 50 mpk, ip + 120 minute; for TPA Edema (% Inhibition): ear thickness
Protocol: The compounds of the present invention were evaluated with respect to 5-lipoxygenase inhibition according to the Tetradecanoylphorbol Acetate (TPA) Assay which is described in Rao et al., "Comparative Evaluation of Arachidonic Acid (AA)--And Tetradecanoylphorbol Acetate (TPA)-Induced Dermal Inflammation." Inflammation, Vol. 17, No. 6, 723-741 (1993), which is incorporated herein by reference.
In this study, selective 5-lipoxygenase inhibitors, such as zileuton, MK-886, LTB4 and LTD4 receptor […] were evaluated in acute inflammatory responses elicited by the topical application of TPA to the ears of mice. The increases in edema and myeloperoxidase (MPO) were used as readouts of inflammatory responses.
Animals. Female BALB/c mice (17-25 g; Jackson Labs, Bar Barbor, Me.) or male Swiss Webster mice (Charles River, Portage, Mich.) were used in the studies. The animals were housed in a vivarium with a 12-hour lighting schedule (0600-1800 hours on) with free access to food and water. Housing and experimental procedures were conducted according to institutionally approved (Monsanto, St. Louis, Mo. and National Institute of Health) guidelines.
Drugs and Reagents. Hexadecyltrimethylammonium bromide (HTAB), and TPA were purchased from Sigma Chemical Co. (St. Louis, Mo.). Human polymorphonuclear leukocyte myeloperoxidase (20 units/mg protein) was obtained from Calbiochem (San Diego, Calif.). One unit of MPO was defined as the activity of the enzyme that oxidizes 1 μmol of hydrogen peroxide per minute at 25° C.
TPA Inflammation Model. […] Four hours following the application of TPA, increases in ear thickness were measured and ears were excised for MPO measurements.
Measurement of MPO. […] The rate of change of absorbance was monitored in kinetic mode by a plate reader (Molecular Devices, Menlo Park, Calif.). Levels of MPO in lavage samples were determined from the calibration curves using human neutrophil MPO as the reference standard. The levels of MPO were expressed as milliunits per ear. […]

[2] = system: LTB4 production by calcium ionophore stimulated human blood; assay: Human Whole Blood LTB4 Assay (calcium ionophore stimulated LTB4 production); type: cell-based; details: calcium ionophore A23187, LTB4
Protocol: (§1) (c) LTB4 and Thromboxane Production by Calcium Ionophore Stimulated Human Blood--Human Whole Blood LTB4 Assay
(§2) The compounds of the present invention were evaluated with respect to 5-lipoxygenase inhibition according to the Human Whole Blood LTB4 Assay described below.
(§3) Human whole blood was collected in heparin containing Vacutainer brand tubes. The blood was diluted with RPMI-1640 cell culture media [1:4] (Gibco, Grand Island, N.Y.) and 200 microliters were added per well in 96 well microtiter plates. Compounds of the present invention diluted in dimethylsulfoxide were added to the blood and allowed to incubate for 15 minutes at 37° C. in a humidified incubator. Calcium ionophore A23187 [20 mcg/ml final concentration, Sigma Chemical Co., St. Louis, Mo.] was added, and the incubation was continued for 10 minutes. The incubation was terminated by centrifugation [833 g, 10 minutes at 4° C.]. Supernatants were analyzed for LTB4 and thromboxane by commercially available enzyme-linked immunoassays [Caymen Chemical Co., Ann Arbor, Mich.]. Test compounds which inhibit 5-lipoxygenase in this assay inhibit the formation of LTB4 and cause reduced levels of this agent in the supernatant.
(§4) The results of this assay are expressed in terms of activity with respect to 5-lipoxygenase inhibition as an IC50 value (50% inhibitory concentration).

[3] = system: Thromboxane production by calcium ionophore stimulated human blood; assay: Human Whole Blood Assay, thromboxane production (calcium ionophore stimulated); type: cell-based; details: calcium ionophore A23187, thromboxane
Protocol: as §1, §2, §3, §4

[4] = molecular target: T1, Human recombinant 5-lipoxygenase (Homo sapiens, UniProt P09917); assay: Recombinant 5-Lipoxygenase Inhibition Assay; type: biochemical; details: 25° C., 8 minutes, absorbance at 240 nm
T1 construct: made in house; host or cells: E. coli
T1 sequence (P09917 1-674): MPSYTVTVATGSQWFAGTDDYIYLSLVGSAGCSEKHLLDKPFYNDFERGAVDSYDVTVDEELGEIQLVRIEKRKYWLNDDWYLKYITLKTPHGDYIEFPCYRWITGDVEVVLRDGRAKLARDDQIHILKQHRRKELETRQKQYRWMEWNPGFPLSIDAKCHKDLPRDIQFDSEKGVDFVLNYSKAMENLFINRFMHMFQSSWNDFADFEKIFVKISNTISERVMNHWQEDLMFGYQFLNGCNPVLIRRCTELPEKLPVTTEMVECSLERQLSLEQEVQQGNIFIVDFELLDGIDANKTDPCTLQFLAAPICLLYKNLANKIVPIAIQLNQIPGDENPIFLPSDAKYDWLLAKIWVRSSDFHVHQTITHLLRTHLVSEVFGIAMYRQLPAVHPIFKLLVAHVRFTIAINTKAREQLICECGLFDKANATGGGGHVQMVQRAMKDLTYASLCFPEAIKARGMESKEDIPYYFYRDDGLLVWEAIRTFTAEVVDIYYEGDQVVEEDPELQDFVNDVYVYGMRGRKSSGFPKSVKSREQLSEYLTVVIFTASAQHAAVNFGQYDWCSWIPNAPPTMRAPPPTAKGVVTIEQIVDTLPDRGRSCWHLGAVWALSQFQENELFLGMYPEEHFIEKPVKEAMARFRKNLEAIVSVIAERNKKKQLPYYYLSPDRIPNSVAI
Protocol: The compounds of the present invention were evaluated with respect to 5-lipoxygenase inhibition according to the Recombinant 5-Lipoxygenase Inhibition Assay described below.
Human 5-lipoxygenase expressed in E. coli as a soluble protein was prepared in the manner described by M. Noguchi et al., "Expression of Human 5-Lipoxygenase cDNA in E. coli," FEBS Letters, Vol. 249, No. 2, 267-270 (1989), which is incorporated herein by reference. The human 5-lipoxygenase was partially purified by ion exchange chromatography and stored in 50 mM Tris-HCl buffer (pH 8.1) containing 150 mM NaCl, 2 mM EDTA, 2 mM DTT, and 50% glycerol at -70° C. before use.
The following solutions were prepared as indicated: CaCl2 /ATP, 12.5 mM CaCl2 and 5 mM ATP in H2 O; arachidonic acid, 4 mM in ethanol; potassium phosphate buffer, 50 mM potassium phosphate and 0.1 mM EDTA, pH 7.2. Test compounds were first prepared at 10 mM in DMSO and further diluted to desirable concentrations with DMSO.
The assay was carried out in a quartz cuvette to which 15 μl CaCl2 /ATP, 7.5 μl arachidonic acid, 7.5 μl ethanol or test compound, and 710 μl potassium phosphate buffer, in that order, were added and mixed. The mixture was prewarmed to 25° C. The enzymatic reaction was started by adding 10 μl of 5-lipoxygenase enzyme (~0.2 mg protein), and the formation of the reaction product 5-HPETE/5-HETE at 25° C. for 8 minutes was determined by measuring the increase in the absorbance at 240 nm using a Beckman DU-7 spectrophotometer.
The results for this assay are expressed in terms of activity with respect to 5-lipoxygenase inhibition as an IC50 value (50% inhibitory concentration).

SMILES | IC50 [2] [µM] | IC50 [3] [µM] | IC50 [4] [µM] | TPA Edema (% Inhibition) [1] [%] | TPA MPO (% Inhibition) ([1]; myeloperoxidase) [%]
CC(C)(C)c1cc(SCC(O)Cn2ccc3ncnc-3c2)cc(C(C)(C)C)c1O (racemic) [Compound 27, (±) 2,6-bis(1,1-dimethylethyl)-4-[[2-hydroxy-3-(5H-imidazo[4,5-c]pyridin-5-yl]propylthio]phenol Hydrate] | 7.42 | 37.3 | 1.1 ± 0.23 | 46 | 
CC(C)(C)c1cc(SCCCn2ccc3ncnc-3c2)cc(C(C)(C)C)c1O [Compound 5, 2,6-bis(1,1-dimethylethyl)-4-[[3-(5H-imidazo-[4,5-c]pyridin-5-yl)propyl]thio]phenol] | 13.3 | 50 | 0.57 ± 0.07 | 42 | 24
CC(C)(C)c1cc(SCCn2ccc3ncnc-3c2)cc(C(C)(C)C)c1O [Compound 8, 2,6-bis(1,1-dimethylethyl)-4-[[2-(5H-imidazo-[4,5-c]pyridin-5-yl)ethyl]thio]phenol Hydrate] |  |  | 4.48 ± 0.36 |  | 
CC(C)(C)c1cc(SCCCCn2ccc3ncnc-3c2)cc(C(C)(C)C)c1O [Compound 14, 2,6-bis(1,1-dimethylethyl)-4-[[4-(5H-imidazo-[4,5-c]pyridin-5-yl)butyl]thiophenol Hydrate] |  |  | 0.41 ± 0.02 |  | 
CC(C)(C)c1cc(SCCCn2ccc3ccccc32)cc(C(C)(C)C)c1O [Compound 24, 2,6-bis(1,1-dimethylethyl)-4-[[3-(1H-indol-1-yl)propyl]thio]phenol Hydrate] |  |  | 0.48 ± 0.09 |  | 
CC(C)(C)c1cc(SCCSc2nc3ccccc3o2)cc(C(C)(C)C)c1O [Compound 26, 2,6-bis(1,1-dimethylethyl)-4-[[2-[(1,3-benzoxazol-2-yl)thio]ethyl]thio]phenol Hydrate] | 11.1 | 9.1 | 0.93 ± 0.16 |  | 
CC(C)(C)c1cc(SCc2nc3cccnc3[nH]2)cc(C(C)(C)C)c1O [Compound 29, 2,6-bis(1,1-dimethylethyl)-4-[[(3H-imidazo-[4,5-b]pyridin-2-yl)methyl]thio]phenol] | 20.1 | 50 | 1.8 ± 0.3 |  | 

The next lines start with results.

IC50 [2] [µM] | IC50 [3] [µM] | IC50 [4] [µM] | SMILES | TPA Edema (% Inhibition) [1] [%] | TPA MPO (% Inhibition) ([1]; myeloperoxidase) [%]
6.27 | 14.4 | 0.49 ± 0.04 | CC(C)(C)c1cc(SCCCn2cnc3ccncc32)cc(C(C)(C)C)c1O [Compound 15, 2,6-bis(1,1-dimethylethyl)-4-[[3-(1H-imidazo[5,4-c]pyridin-1-yl]propyl]thio]phenol] |  | 
 |  | 0.34 ± 0.1 | CC(C)(C)c1cc(SCCCn2cnc3cnccc32)cc(C(C)(C)C)c1O [Compound 16, 2,6-bis(1,1-dimethylethyl)-4-[[3-(1H-imidazo[4,5-c]pyridin-1-yl)propyl]thio]phenol] |  | 
 |  | 0.32 ± 0.02 | CC(C)(C)c1cc(SCCCn2cnc3cccnc32)cc(C(C)(C)C)c1O [Compound 18, (2,6-bis(1,1-dimethylethyl)-4-[[3-(1H-imidazo[5,4-b]pyridin-1-yl)propyl]thio]phenol Hydrate] |  | 
6.62 | > 39 | 0.36 ± 0.07 | CC(C)(C)c1cc(SCCCn2cnc3ncccc32)cc(C(C)(C)C)c1O [Compound 19, 2,6-bis(1,1-dimethylethyl)-4-[[3-1H-imidazo[4,5-b]pyridin-1-yl)propyl]thio]-phenol Hydrate] |  | 
2.26 | 18.6 | 0.14 ± 0.02 | CC(C)(C)c1cc(SCCCn2cnc3ccccc32)cc(C(C)(C)C)c1O [Compound 21, 2,6-bis(1,1-dimethylethyl)-4-[[3-(1H-benzimidazol-1-yl)propyl]thio]phenol] |  | 
